Results published in paper PMC4923908, “In vitro and in vivo study of epigallocatechin-3-gallate-induced apoptosis in aerobic glycolytic hepatocellular carcinoma cells involving inhibition of phosphofructokinase activity” (Scientific Reports, 2016).

T1: Phosphofructokinase (PFK), purified from rabbit skeletal muscle (Oryctolagus cuniculus, UniProt P00511)
T1 construct: gene PFKM
T1 sequence (P00511 2-780): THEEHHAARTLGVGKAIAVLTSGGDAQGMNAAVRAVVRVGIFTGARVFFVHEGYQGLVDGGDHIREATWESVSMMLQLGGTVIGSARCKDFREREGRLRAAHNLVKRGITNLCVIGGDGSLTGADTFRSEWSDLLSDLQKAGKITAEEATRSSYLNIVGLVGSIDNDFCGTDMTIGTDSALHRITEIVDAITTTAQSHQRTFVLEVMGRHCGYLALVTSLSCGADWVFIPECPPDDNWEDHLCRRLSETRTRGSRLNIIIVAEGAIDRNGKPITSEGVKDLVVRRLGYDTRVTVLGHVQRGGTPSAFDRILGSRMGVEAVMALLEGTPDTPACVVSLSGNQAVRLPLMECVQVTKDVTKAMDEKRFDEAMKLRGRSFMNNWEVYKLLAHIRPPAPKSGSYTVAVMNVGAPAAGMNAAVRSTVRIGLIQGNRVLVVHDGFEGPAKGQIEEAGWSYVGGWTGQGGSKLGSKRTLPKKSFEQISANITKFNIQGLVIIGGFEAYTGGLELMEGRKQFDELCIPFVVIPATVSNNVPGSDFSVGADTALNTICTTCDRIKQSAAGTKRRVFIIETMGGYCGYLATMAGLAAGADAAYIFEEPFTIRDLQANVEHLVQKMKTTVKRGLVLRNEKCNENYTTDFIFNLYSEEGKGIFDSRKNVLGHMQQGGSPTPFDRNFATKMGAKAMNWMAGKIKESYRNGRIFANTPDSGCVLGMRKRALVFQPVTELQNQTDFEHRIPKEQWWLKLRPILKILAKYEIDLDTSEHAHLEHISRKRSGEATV

B1: Phosphofructokinase (PFK) purified from rabbit skeletal muscle (enzyme, UniProt P00511 1-780, looked up)
chain: MTHEEHHAARTLGVGKAIAVLTSGGDAQGMNAAVRAVVRVGIFTGARVFFVHEGYQGLVDGGDHIREATWESVSMMLQLGGTVIGSARCKDFREREGRLRAAHNLVKRGITNLCVIGGDGSLTGADTFRSEWSDLLSDLQKAGKITAEEATRSSYLNIVGLVGSIDNDFCGTDMTIGTDSALHRITEIVDAITTTAQSHQRTFVLEVMGRHCGYLALVTSLSCGADWVFIPECPPDDNWEDHLCRRLSETRTRGSRLNIIIVAEGAIDRNGKPITSEGVKDLVVRRLGYDTRVTVLGHVQRGGTPSAFDRILGSRMGVEAVMALLEGTPDTPACVVSLSGNQAVRLPLMECVQVTKDVTKAMDEKRFDEAMKLRGRSFMNNWEVYKLLAHIRPPAPKSGSYTVAVMNVGAPAAGMNAAVRSTVRIGLIQGNRVLVVHDGFEGPAKGQIEEAGWSYVGGWTGQGGSKLGSKRTLPKKSFEQISANITKFNIQGLVIIGGFEAYTGGLELMEGRKQFDELCIPFVVIPATVSNNVPGSDFSVGADTALNTICTTCDRIKQSAAGTKRRVFIIETMGGYCGYLATMAGLAAGADAAYIFEEPFTIRDLQANVEHLVQKMKTTVKRGLVLRNEKCNENYTTDFIFNLYSEEGKGIFDSRKNVLGHMQQGGSPTPFDRNFATKMGAKAMNWMAGKIKESYRNGRIFANTPDSGCVLGMRKRALVFQPVTELQNQTDFEHRIPKEQWWLKLRPILKILAKYEIDLDTSEHAHLEHISRKRSGEATV
notes: Phosphofructokinase from rabbit skeletal muscle (muscle-type ATP-dependent 6-phosphofructokinase); no identifier or residues printed; The number of copies therefore depends on the condition; also called purified PFK; PFK1; source: purified from rabbit skeletal muscle

Columns and labels:
[1] = molecular target: T1, Phosphofructokinase (PFK), purified from rabbit skeletal muscle; test: radiometric assay of purified PFK ([γ-32P]ATP); supported by intrinsic fluorescence center-of-mass shift (tetramer to dimer); format: biochemical
[2] = molecular target: the molecule itself; test: intrinsic fluorescence spectra (center of mass); purified PFK incubated 1 h with 0, 25, 50, 100 and 200 uM EGCG; conditions as for the radioassay (50 mM Tris-HCl pH 7.4, 5 mM MgCl2, 5 mM (NH4)2SO4, 1 mM F6P, 1 mM ATP, 1 mg/ml purified PFK); excitation 280 nm, emission 300-400 nm; tetramer to dimers

Row | Molecule | IC50 [1] | stoichiometry N [2]
1 | O=C(O[C@@H]1Cc2c(O)cc(O)cc2O[C@@H]1c1cc(O)c(O)c(O)c1)c1cc(O)c(O)c(O)c1 [EGCG, epigallocatechin-3-gallate] | 124 µM | –
2 | B1 | – | 2
